Key:
Assay in all cases: relative viability (nuclei count vs DMSO), 5 days (fraction); higher = more cells survive
[1] = compound: CC(O)(CS(=O)(=O)c1ccc(F)cc1)C(=O)Nc1ccc(C#N)c(C(F)(F)F)c1 [Bicalutamide] + Nc1nc2[nH]cc(CCc3ccc(C(=O)N[C@@H](CCC(=O)O)C(=O)O)cc3)c2c(=O)[nH]1 [Pemetrexed] (partner 0.2 µM)
Summary of the method: (§1)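 Relative viability was taken as the ratio of nuclei in treated wells to nuclei in vehicle wells. Lung cancer cell lines in 1536-well plates received compounds by pin tool one day after seeding, either one drug alone or a fixed anchor-drug dose plus five library-drug doses (not always all listed) in √10 steps. Nuclei were counted on 4× images after 5 days of treatment, and values are medians of duplicate plates.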

[2] = compound: C(C(=O)C(=O)O)Br [Bromopyruvate] + C[C@@H](Oc1cc(-c2cnn(C3CCNCC3)c2)cnc1N)c1c(Cl)ccc(F)c1Cl [Crizotinib] (partner 1 µM)
Summary of the method: as §1

Bromopyruvate + OSI-027 = compound: C(C(=O)C(=O)O)Br [Bromopyruvate] + COc1cccc2cc(-c3nc([C@H]4CC[C@H](C(=O)O)CC4)n4ncnc(N)c34)[nH]c12 [OSI-027] (partner 0.5 µM)
Summary of the method: as §1

[3] = compound: CC(O)(CS(=O)(=O)c1ccc(F)cc1)C(=O)Nc1ccc(C#N)c(C(F)(F)F)c1 [Bicalutamide] + N=C(N)NC(=N)NCCc1ccccc1 [Phenformin] (partner 250 µM)
Summary of the method: as §1

UMC-11
relative viability ([1]; first compound 0.08 µM): 0.83
relative viability ([1]; first compound 0.253 µM): 0.732
relative viability ([1]; first compound 0.8 µM): 0.829
relative viability ([1]; first compound 2.53 µM): 0.756
relative viability ([2]; first compound 1 µM): 0.727
relative viability ([2]; first compound 3.162 µM): 0.655
relative viability ([2]; first compound 10 µM): 0.505
relative viability ([2]; first compound 31.62 µM): 0.509
relative viability ([2]; first compound 100 µM): 0.52
relative viability (Bromopyruvate + OSI-027; first compound 1 µM): 0.518
relative viability (Bromopyruvate + OSI-027; first compound 3.162 µM): 0.452
relative viability (Bromopyruvate + OSI-027; first compound 10 µM): 0.491
relative viability (Bromopyruvate + OSI-027; first compound 31.62 µM): 0.533
relative viability (Bromopyruvate + OSI-027; first compound 100 µM): 0.501
relative viability ([3]; first compound 0.08 µM): 0.35
relative viability ([3]; first compound 0.253 µM): 0.319
relative viability ([3]; first compound 0.8 µM): 0.372
relative viability ([3]; first compound 2.53 µM): 0.302

Source: the supplement of paper PMC10307832
